Where a SMILES comes first, the peptide text is derived from it. Bridges are numbered along the chain shown (N, C = ends).

Results on six compounds are retold here after patent publication US6087334A, “Anti-diabetic peptides” (Amylin Pharmaceuticals, Inc., priority 1998, dated 2000).

Experiment [1] has as its target T1, C1a receptor (C1a-type calcitonin receptor) (Rattus norvegicus, UniProt P32214).
T1 construct: expressed in transfected cells
T1 sequence (P32214 25-479 isoform P32214-2 limits assumed): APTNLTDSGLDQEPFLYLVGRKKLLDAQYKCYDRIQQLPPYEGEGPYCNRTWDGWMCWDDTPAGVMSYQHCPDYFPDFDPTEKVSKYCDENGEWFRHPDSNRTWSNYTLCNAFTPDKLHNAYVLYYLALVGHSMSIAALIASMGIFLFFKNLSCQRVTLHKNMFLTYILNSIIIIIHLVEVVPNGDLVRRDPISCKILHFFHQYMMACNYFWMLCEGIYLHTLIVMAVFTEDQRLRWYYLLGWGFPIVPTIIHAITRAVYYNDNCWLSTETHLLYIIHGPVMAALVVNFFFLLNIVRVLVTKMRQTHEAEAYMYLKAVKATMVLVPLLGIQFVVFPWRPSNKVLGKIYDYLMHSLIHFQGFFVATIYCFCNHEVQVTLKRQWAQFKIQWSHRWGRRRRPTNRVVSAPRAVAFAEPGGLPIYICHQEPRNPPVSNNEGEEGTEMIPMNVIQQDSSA
As to the kind of experiment: C1a/293 competitive binding, displacement of [125I]-human calcitonin (Example C). The note with it: HEK293 plasma membranes (C1a/293), [125I]-human calcitonin 20 pM. The procedure: Peptide compounds of the present invention may be evaluated for binding to the C1a receptor using the procedures described in Example C. The C1a receptor is the predominant mammalian calcitonin receptor subtype. C1a pcDNA construction and transfection were carried out as previously described (Albrandt et al. 1993, FEBS Letters, 325:225-232). HEK293 cell lines showing stable expression of the rat C1a-type calcitonin receptor (C1a/293) or the human C1a-type calcitonin receptor (1154/293) were selected by G418 resistance and limiting dilution culture methods. Plasma membranes were collected from homogenized HEK293 cells and used in the receptor binding assay. Individual test peptides at concentrations spanning 6 log units starting at around 10^-6 M were examined for their ability to displace [^125 I]-human calcitonin from the plasma membrane preparation using a 96-well microtiter plate format and scintillation counting with a Wallac LKB Beta plate counter. Competitive binding curves were constructed. Non-specific binding was measured in the presence of 100 nM calcitonin. Peptide potencies (IC50 's for competitive binding) were calculated by non-linear regression using Prism™ (version 2.01, GraphPAD Software, San Diego, Calif.).
C1a/293 Competitive Binding Studies:
Compounds were evaluated for competition in binding to the C1a receptor as follows:
(§1) Reference peptides used in these studies were purchased from Bachem (Torrance, Calif.). All other chemicals were of the highest commercial grade. [^35 S]-GTPγS was purchased from NEN Life Science Products, Inc., Pittsburgh, Pa. [^125 I]-human calcitonin was purchased from Amersham Pharmacia Biotech, Inc., Piscataway, N.J.
Methods for C1a pcDNA construction and transfection have been previously described (Albrandt, et al. 1993). HEK293 cell lines stably expressing the rat C1a-type calcitonin receptor (C1a/293) or the human C1a-type calcitonin receptor (1154/293) were selected by G418 resistance and limiting dilution culture methods.
(§2) Confluent cells were detached from tissue culture flasks by incubation with 5 mM EDTA in PBS. Cells were homogenized in ice-cold 20 mM HEPES, pH 7.4 with a Polytron homogenizer. Plasma membranes were collected using three cycles of washing in fresh buffer followed by centrifugation for 15 minutes at 48,000×g. The final membrane pellet was resuspended in 20 mM HEPES buffer containing 0.2 mM phenylmethylsulfonyl fluoride (PMSF) and stored at -70° C.
Assay buffer contained 5 μg/mL bestatin, 1 μg/mL phosphoramidon, 1 mg/mL bovine serum albumin (fraction V), 1 mg/mL bacitracin, 1 mM MgCl2, and 20 mM HEPES, pH 7.4. Membranes (2-5 μg membrane protein/well), [^125 I]-human calcitonin (20 pM), and peptides were combined in 200 μL buffer in 96-well microtiter plates. After a 60 minute incubation at room temperature, well contents were harvested onto polyethyleneimine-treated GF/B glass fiber pads using a Tomtec Mach II plate harvestor (Hamden, Conn.). Dried pads were combined with scintillant and counted on a Wallac LKB Beta Plate scintillation counter (Gaithersburg, Md.). For competitive binding curves, samples were run in duplicate over a 6 log concentration range starting at 10^-6 or 10^-7 M. Non-specific binding was measured in the presence of 100 nM human calcitonin.
A general note: Displacement assays read how much labelled ligand stays bound in the presence of the test substance.

For experiment [2], the target named is T1, C1a receptor (C1a-type calcitonin receptor). The experiment in a line: biochemical. As to conditions: HEK293 plasma membranes, [35S]-GTPγS 200 pM; read-out: ED50 (nM) Example B (C1a GTPγS).
From the text: Peptide compounds of the present invention may be evaluated for agonist activity using the procedures described in Example B. The plasma membrane preparation of a 7-transmembrane-G-protein coupled receptor (GPCR) contains not only the receptor but also the G-proteins which constitute the first step in the intracellular signal transduction process when the receptor is activated by an agonist ligand. […] Agonist activation of a GPCR is accompanied by displacement of GDP by GTP from this site. Thus, measurement of the binding of a radiolabelled ligand, namely [^35 S]-GTPγS, for this binding site constitutes a measure of agonist potency for a given ligand. For agonism at the C1a receptor, a similar membrane preparation to that described below for the C1a binding studies is used. C1a pcDNA construction and transfection were carried out as previously described (Albrandt et al. 1993, FEBS Letters, 325:225-232). HEK293 cell lines showing stable expression of the rat C1a-type calcitonin receptor (C1a/293) or the human C1a-type calcitonin receptor (1154/293) were selected by G418 resistance and limiting dilution culture methods. Plasma membranes were collected from homogenized HEK293 cells and used in the [^35 S]-GTPγS assay. Individual test peptides at concentrations spanning 6 log units starting at around […] were examined for their ability to bind [^35 S]-GTPγS. Maximum agonist-specific binding was measured in the presence of 1 μM human calcitonin, constitutive binding was measured in the presence of buffer alone. Peptide potencies (EC50 's for concentration response curves) were calculated by non-linear regression using Prism™ (version 2.01, GraphPAD Software, San Diego, Calif.).
[^35 S]-GTPγS C1a Agonist Studies
Evaluation of the agonist activity of compounds versus the C1a receptor was carried out as follows:
as §1
Methods for C1a pcDNA construction and transfection have been previously described (Albrandt, et al. 1993, FEBS Letters, 325:225-232). HEK293 cell lines stably expressing the rat C1a-type calcitonin receptor (C1a/293) or the human C1a-type calcitonin receptor (1154/293) were selected by G418 resistance and limiting dilution culture methods.
as §2
Assay buffer contained 1 μM GDP, 1 mM EDTA, 5 mM MgCl2, 20 mM Hepes, and 150 mM NaCl, pH 7.4. Membranes (7.5 μg membrane protein/well), [^35 S]-GTPγS (200 pM), and peptides were combined in 200 μL buffer in 96-well microtiter plates. After a 75 minute incubation at room temperature, well contents were harvested onto GF/B glass fiber pads using a Tomtec Mach II plate harvestor (Hamden, Conn.). Dried pads were combined with scintillant and counted on a Wallac LKB Beta Plate scintillation counter. For concentration response curves, samples were run in duplicate over a 6 log concentration range starting at 10^-6 M or 10^-7 M. Maximum agonist-specific binding was measured in the presence of 1 μM human calcitonin, constitutive binding was measured in the presence of buffer alone.
Peptide potencies (1C50 's for competitive binding, and EC50 's for concentration response curves) were calculated by non-linear regression using Prism (version 2.01, GraphPAD Software, San Diego, Calif.).
In general terms: GTPγS resists hydrolysis and so accumulates on activated G proteins.

Broadly, the IC50 is the midpoint of a concentration-inhibition curve. As for `CC(C)C[C@H](NC(=O)[C@H](CCCNC(=N)N)NC(=O)[C@H](CCC(N)=O)NC(=O)[C@@H](NC(=O)[C@H](C)NC(=O)[C@@H]1CSSC[C@H](NC(=O)[C@@H](N)CCCCN)C(=O)N[C@@H](CC(N)=O)C(=O)N[C@@H]([C@@H](C)O)C(=O)N[C@@H](C)C(=O)N[C@@H]([C@@H](C)O)C(=O)N1)[C@@H](C)O)C(=O)N[C@@H](C)C(=O)N[C@@H](CC(N)=O)C(=O)N[C@@H](Cc1ccccc1)C(=O)N[C@@H](CC(C)C)C(=O)N[C@H](C(=O)N[C@@H](CCCNC(=N)N)C(=O)N[C@@H](C)C(=O)N[C@@H](CO)C(=O)NCC(=O)N[C@@H](Cc1ccc(O)cc1)C(N)=O)C(C)C` [Example 10] (H-KCNTATCATQRLANFLVRASGY-NH2; disulfide 2-7), in experiment [1], the IC50 was 4.7 nM. Also, the EC50 in experiment [2] was 8 nM.
On to `CC(C)C[C@H](NC(=O)[C@H](CCCNC(=N)N)NC(=O)[C@H](CCC(N)=O)NC(=O)[C@@H](NC(=O)[C@H](C)NC(=O)[C@@H]1CSSC[C@H](NC(=O)[C@@H](N)CCCCN)C(=O)N[C@@H](CC(N)=O)C(=O)N[C@@H]([C@@H](C)O)C(=O)N[C@@H](C)C(=O)N[C@@H]([C@@H](C)O)C(=O)N1)[C@@H](C)O)C(=O)N[C@@H](C)C(=O)N[C@@H](CC(N)=O)C(=O)N[C@@H](Cc1ccccc1)C(=O)N[C@@H](CC(C)C)C(=O)N[C@H](C(=O)N[C@@H](Cc1c[nH]cn1)C(=O)N[C@@H](CO)C(=O)N[C@@H](CO)C(=O)NCC(=O)N[C@@H](Cc1ccc(O)cc1)C(N)=O)C(C)C` [Example 11] (H-KCNTATCATQRLANFLVHSSGY-NH2; disulfide 2-7), for which the IC50 in experiment [1] was found to be 8.3 nM. In experiment [2], the EC50 stood at 14 nM.
On to `CC(C)C[C@H](NC(=O)[C@H](CCCNC(=N)N)NC(=O)[C@H](CCC(N)=O)NC(=O)[C@@H](NC(=O)[C@H](C)NC(=O)[C@@H]1CSSC[C@H](NC(=O)[C@@H](N)CCCCN)C(=O)N[C@@H](CC(N)=O)C(=O)N[C@@H]([C@@H](C)O)C(=O)N[C@@H](C)C(=O)N[C@@H]([C@@H](C)O)C(=O)N1)[C@@H](C)O)C(=O)N[C@@H](C)C(=O)N[C@@H](CC(N)=O)C(=O)N[C@@H](Cc1ccccc1)C(=O)N[C@@H](CC(C)C)C(=O)N[C@H](C(=O)N[C@@H](C)C(=O)N[C@@H](CO)C(=O)N[C@@H](CO)C(=O)NCC(=O)N[C@@H](Cc1ccc(O)cc1)C(N)=O)C(C)C` [Example 12] (H-KCNTATCATQRLANFLVASSGY-NH2; disulfide 2-7), for which the IC50 in experiment [1] was found to be 10 nM. Further, the EC50 in experiment [2] amounted to 8 nM.
Turning to `CC(C)C[C@H](NC(=O)[C@H](CCCNC(=N)N)NC(=O)[C@H](CCC(N)=O)NC(=O)[C@@H](NC(=O)[C@H](C)NC(=O)[C@@H]1CSSC[C@H](N)C(=O)N[C@@H](CC(N)=O)C(=O)N[C@@H]([C@@H](C)O)C(=O)N[C@@H](C)C(=O)N[C@@H]([C@@H](C)O)C(=O)N1)[C@@H](C)O)C(=O)N[C@@H](C)C(=O)N[C@@H](CC(N)=O)C(=O)N[C@@H](Cc1ccccc1)C(=O)N[C@@H](CC(C)C)C(=O)N[C@H](C(=O)N[C@@H](CCCNC(=N)N)C(=O)N[C@@H](CO)C(=O)N[C@@H](CO)C(=O)NCC(=O)N[C@@H](Cc1ccc(O)cc1)C(N)=O)C(C)C` [Example 13] (H-CNTATCATQRLANFLVRSSGY-NH2; disulfide 1-6), the IC50 in experiment [1] came out at 12 nM. The EC50 in experiment [2] turned out to be 19 nM.
For `CC(C)C[C@H](NC(=O)[C@H](CCCNC(=N)N)NC(=O)[C@H](CCC(N)=O)NC(=O)[C@@H](NC(=O)[C@H](C)NC(=O)[C@@H]1CSSC[C@H](NC(=O)[C@@H](N)CCCCN)C(=O)N[C@@H](CC(N)=O)C(=O)N[C@@H]([C@@H](C)O)C(=O)N[C@@H](C)C(=O)N[C@@H]([C@@H](C)O)C(=O)N1)[C@@H](C)O)C(=O)N[C@@H](C)C(=O)N[C@@H](CC(N)=O)C(=O)N[C@@H](Cc1ccccc1)C(=O)N[C@@H](CC(C)C)C(=O)N[C@H](C(=O)N[C@@H](CCCNC(=N)N)C(=O)N[C@@H](CO)C(=O)N[C@@H](CO)C(=O)NCC(=O)N[C@@H](Cc1ccc(O)cc1)C(N)=O)C(C)C` [Example 14] (H-KCNTATCATQRLANFLVRSSGY-NH2; disulfide 2-7), in that order: 18 nM and 90 nM.
For the compound `CC(C)C[C@H](NC(=O)[C@H](CCCNC(=N)N)NC(=O)[C@H](CCC(N)=O)NC(=O)[C@@H](NC(=O)[C@H](C)NC(=O)[C@@H]1CSSC[C@H](NC(=O)[C@@H](N)CCCCN)C(=O)N[C@@H](CC(N)=O)C(=O)N[C@@H]([C@@H](C)O)C(=O)N[C@@H](C)C(=O)N[C@@H]([C@@H](C)O)C(=O)N1)[C@@H](C)O)C(=O)N[C@@H](C)C(=O)N[C@@H](CC(N)=O)C(=O)N[C@@H](Cc1ccccc1)C(=O)N[C@@H](CC(C)C)C(=O)N[C@H](C(=O)N[C@@H](CCCNC(=N)N)C(=O)N[C@@H](CO)C(=O)N[C@@H](C)C(=O)NCC(=O)N[C@@H](Cc1ccc(O)cc1)C(N)=O)C(C)C` [Example 15] (H-KCNTATCATQRLANFLVRSAGY-NH2; disulfide 2-7), the IC50 in experiment [1] is 18 nM. In addition, the EC50 in experiment [2] amounted to 21 nM.
